Source: article PMC6269876, “Pancreatic Lipase Inhibitory Gallotannins from Galla Rhois with Inhibitory Effects on Adipocyte Differentiation in 3T3-L1 Cells” (Molecules, 2013)

Columns and labels:
[1] = target: T1, porcine pancreatic lipase (Sus scrofa, UniProt P00591); experiment: Pancreatic lipase activity assay (p-nitrophenylbutyrate hydrolysis); type: biochemical; details: for IC50: mean ± SD of three replicates, regression analysis, read-out: Pancreatic lipase inhibitory activity IC50
T1 construct: purchased Sigma, St. Louis, MO, USA
T1 sequence (P00591 1-450): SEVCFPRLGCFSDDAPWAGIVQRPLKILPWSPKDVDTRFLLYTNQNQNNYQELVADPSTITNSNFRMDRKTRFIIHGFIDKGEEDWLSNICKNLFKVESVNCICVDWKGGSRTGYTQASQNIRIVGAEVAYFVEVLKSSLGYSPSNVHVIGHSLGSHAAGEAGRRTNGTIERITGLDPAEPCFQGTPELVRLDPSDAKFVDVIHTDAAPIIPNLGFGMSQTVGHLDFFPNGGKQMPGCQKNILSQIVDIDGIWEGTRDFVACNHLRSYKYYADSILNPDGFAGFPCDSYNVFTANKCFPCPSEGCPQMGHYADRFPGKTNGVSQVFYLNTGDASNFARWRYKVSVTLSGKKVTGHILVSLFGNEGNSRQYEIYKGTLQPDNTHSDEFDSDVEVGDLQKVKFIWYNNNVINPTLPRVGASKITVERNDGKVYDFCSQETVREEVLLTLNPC
Protocol: A previously reported method, with a minor modification, was used for evaluation of the ability of the compounds to inhibit porcine pancreatic lipase. Briefly, an enzyme buffer was prepared by addition of 30 μL (10 units) of a solution of porcine pancreatic lipase (Sigma, St. Louis, MO, USA) in 10 mM morpholinepropanesulphonic acid (MOPS) and 1 mM EDTA (pH 6.8) to 850 μL of Tris buffer (100 mM Tris-HC1 and 5 mM CaCl2, pH 7.0). […] Inhibition of lipase activity was expressed as the percentage decrease in the optical density (OD) when porcine pancreatic lipase was incubated with the test compounds.

3T3-L1 cells = experiment: Assay of adipocyte differentiation in 3T3-L1 cells (Oil Red O staining); type: cell-based; details: Mus musculus, 3T3-L1, 50 μM, treated throughout the differentiation period; read-out: Inhibition of lipid deposition (lipid accumulation)
Protocol: Of particular interest, a certain degree of galloylation on the glucose moiety of these active molecules appears to be required for potent inhibitory activity. […] The non-toxic concentrations of the tested compounds were established in 3T3-L1 preadipocytes using concentrations of 50, 25, and 10 μM. After two days of incubation, an MTT assay was performed for measurement of cell viability; according to the results, no cytotoxic effect was detectable for any of the tested compounds in concentrations up to 50 μM. […] 3T3-L1 mouse embryo fibroblasts were cultured in DMEM supplemented with 10% FBS until reaching confluence. Two days after reaching confluence (day 0), to initiated differentiation, cells were stimulated with differentiation medium containing DMEM with 10% FBS, 0.5 mM 3-isobutyl-1-methylxanthine, 1 μM insulin and 1 μM dexamethasone for two days (day 2). […] All media contained 100 IU/mL penicillin and 100 μg/mL streptomycin. Cells were maintained at 37 °C in a humidified atmosphere of 95% air-5% CO2. Throughout the culture period (days 0–8), the cultures were treated with test samples for general experiments, with a slight modification. […] For quantitative analysis, Oil Red O staining was dissolved with isopropyl alcohol and optical density was measured at 500 nm using an ELISA plate reader.

Row | SMILES | IC50 [1] [µM] | Pancreatic lipase inhibition, result in words [1] | inhibition at 50 µM (3T3-L1 cells) [%]
1 | O=C(OC[C@H]1O[C@@H](OC(=O)c2cc(O)c(O)c(O)c2)[C@H](OC(=O)c2cc(O)c(O)c(O)c2)[C@@H](OC(=O)c2cc(O)c(O)c(O)c2)[C@@H]1OC(=O)c1cc(O)c(O)c(O)c1)c1cc(O)c(O)c(O)c1 [Compound 3, 1,2,3,4,6-penta-O-galloyl-β-D-glucose] | 15.9 ± 1 | – | –
2 | COC(=O)c1cc(O)c(O)c(O)c1 [Compound 6, methylgallate] | > 300 | inactive | –
3 | O=C(O)c1cc(O)c(O)c(O)c1 [Compound 7, gallic acid] | > 300 | inactive | –
4 | O=C(OC[C@H]1O[C@@H](OC(=O)c2cc(O)c(O)c(O)c2)[C@H](OC(=O)c2cc(O)c(O)c(O)c2)[C@@H](O)[C@@H]1OC(=O)c1cc(O)c(O)c(O)c1)c1cc(O)c(O)c(O)c1 [Compound 4, 1,2,4,6-tetra-O-galloyl-β-D-glucose] | 23.2 ± 1.8 | – | –
5 | C[C@H]1O[C@H](C)[C@@H](O)C2=C1C(=O)c1c(O)cc(O)c(-c3c4c(c(O)c5c(O[C@@H]6O[C@H](CO)[C@@H](O)[C@H](O)[C@H]6O)cc(O)cc35)[C@@H](C)O[C@H](C)[C@H]4O)c1C2=O [Compound 1, protoaphin-fb] | 30.6 ± 2.4 | – | –
6 | O=C(OC[C@H]1O[C@@H](OC(=O)c2cc(O)c(O)c(O)c2)[C@H](OC(=O)c2cc(O)c(O)c(OC(=O)c3cc(O)c(O)c(O)c3)c2)[C@@H](OC(=O)c2cc(O)c(O)c(O)c2)[C@@H]1OC(=O)c1cc(O)c(O)c(O)c1)c1cc(O)c(O)c(O)c1 [Compound 2, 2-O-digalloyl-1,3,4,6-tetra-O-galloyl-β-D-glucose] | 3.5 ± 0.5 | – | 64
